{"source": "paper PMC12396409", "about": "“Screening and hit evaluation of a microbial metabolite library against the pathogenic Plasmodium falciparum and Toxoplasma gondii parasites” (International Journal for Parasitology: Drugs and Drug …, 2025)", "key": {"[1]": {"tested_on": "P. falciparum 3D7 parasites", "test": "P. falciparum growth inhibition assay, 2-cycle (120 h treatment), delayed-death screen and dose-response", "format": "cell-based, Plasmodium falciparum", "conditions": "for activity at 2 µg/mL: Plasmodium falciparum"}, "[2]": {"tested_on": "P. falciparum 3D7 parasites", "test": "P. falciparum growth inhibition assay, 1-cycle (72 h treatment), SYBR DNA staining (library screen at 2 μg/mL and dose-response)", "format": "cell-based, Plasmodium falciparum", "conditions": "for activity at 2 µg/mL: Plasmodium falciparum"}, "[3]": {"tested_on": "T. gondii RH strain (RH-Tub-eYFP) tachyzoites", "test": "microbe, parasite or virus in culture", "format": "cell-based, Toxoplasma gondii", "conditions": "for percent parasite growth at 2 µg/mL: Toxoplasma gondii"}, "[4]": {"conditions": "3D7, 120 h, library screen at 2 μg/mL, 120 h, % growth, replicate 1, read-out: Pf_120h_%Growth_Rep1"}, "[5]": {"conditions": "3D7, 120 h, library screen at 2 μg/mL, 120 h, % growth, replicate 2, read-out: Pf_120h_%Growth_Rep2"}, "[6]": {"conditions": "3D7, 72 h, library screen at 2 μg/mL, 72 h, % growth, replicate 1, read-out: Pf_72h_%Growth_Rep1"}, "[7]": {"conditions": "3D7, 72 h, library screen at 2 μg/mL, 72 h, % growth, replicate 2, read-out: Pf_72h_%Growth_Rep2"}, "[8]": {"conditions": "72 h, library screen at 2 μg/mL, 72 h, % growth, replicate 1, read-out: Tg_72h_%Growth_Rep1"}, "[9]": {"conditions": "72 h, library screen at 2 μg/mL, 72 h, % growth, replicate 2, read-out: Tg_72h_%Growth_Rep2"}, "[10]": {"conditions": "library screen at 2 μg/mL, 72 h, % growth, replicate 1"}, "[11]": {"conditions": "library screen at 2 μg/mL, 72 h, % growth, replicate 2"}, "[12]": {"conditions": "P. falciparum, 120 h, screen at 2 μg/mL, replicate 1"}, "[13]": {"conditions": "P. falciparum, 120 h, screen at 2 μg/mL, replicate 2"}, "[14]": {"conditions": "P. falciparum, 72 h, screen at 2 μg/mL, replicate 1"}, "[15]": {"conditions": "P. falciparum, 72 h, screen at 2 μg/mL, replicate 2"}, "[16]": {"conditions": "T. gondii, 72 h, screen at 2 μg/mL, replicate 1"}, "[17]": {"conditions": "T. gondii, 72 h, screen at 2 μg/mL, replicate 2"}, "[18]": {"conditions": "3D7, P. falciparum, 120 h, screen at 2 μg/mL, replicate 1, read-out: Pf_120h_%Growth_Rep1"}, "[19]": {"conditions": "3D7, P. falciparum, 120 h, screen at 2 μg/mL, replicate 2, read-out: Pf_120h_%Growth_Rep2"}, "[20]": {"conditions": "3D7, P. falciparum, 72 h, screen at 2 μg/mL, replicate 1, read-out: Pf_72h_%Growth_Rep1"}, "[21]": {"conditions": "3D7, P. falciparum, 72 h, screen at 2 μg/mL, replicate 2, read-out: Pf_72h_%Growth_Rep2"}, "[22]": {"conditions": "72 h, T. gondii, 72 h, screen at 2 μg/mL, replicate 1, read-out: Tg_72h_%Growth_Rep1"}, "[23]": {"conditions": "72 h, T. gondii, 72 h, screen at 2 μg/mL, replicate 2, read-out: Tg_72h_%Growth_Rep2"}}, "note": "Like-named read-outs stand apart in the source and are kept apart here."}
{"compound": "CCC(=O)CCCCC[C@@H]1NC(=O)[C@H]2CCCCN2C(=O)[C@H]([C@@H](C)CC)NC(=O)[C@H](Cc2cn(OC)c3ccccc23)NC1=O", "note": "[Apicidin]", "values": [{"measurement": "activity at 2 µg/mL", "setting": "[1]; [4]", "value": 2.31, "unit": "%"}, {"measurement": "activity at 2 µg/mL", "setting": "[1]; [5]", "value": -15.8, "unit": "%"}, {"measurement": "activity at 2 µg/mL", "setting": "[2]; [6]", "value": 1.42, "unit": "%"}, {"measurement": "activity at 2 µg/mL", "setting": "[2]; [7]", "value": 5.38, "unit": "%"}, {"measurement": "percent parasite growth at 2 µg/mL", "setting": "[3]; [8]", "value": 6.14, "unit": "%"}, {"measurement": "percent parasite growth at 2 µg/mL", "setting": "[3]; [9]", "value": 0.42, "unit": "%"}]}
{"compound": "CO[C@H]1/C=C/C=C/C=C/C[C@H](OC(=O)[C@@H](C)NC(=O)C2CCCCC2)[C@H](C)[C@@H](O)/C(C)=C\\CCC2=CC(=O)C=C(NC(=O)C1)C2=O", "note": "[Ansatrienin A]", "values": [{"measurement": "Pf_120h_%Growth_Rep1", "setting": "[1]; library screen at 2 μg/mL, 120 h, % growth, replicate 1", "value": 4.00, "unit": "%"}, {"measurement": "Pf_120h_%Growth_Rep2", "setting": "[1]; library screen at 2 μg/mL, 120 h, % growth, replicate 2", "value": -9.91, "unit": "%"}, {"measurement": "Pf_72h_%Growth_Rep1", "setting": "[2]; [10]", "value": 2.60, "unit": "%"}, {"measurement": "Pf_72h_%Growth_Rep2", "setting": "[2]; [11]", "value": 3.94, "unit": "%"}, {"measurement": "Tg_72h_%Growth_Rep1", "setting": "[3]; [10]", "value": 38.64, "unit": "%"}, {"measurement": "Tg_72h_%Growth_Rep2", "setting": "[3]; [11]", "value": 44.79, "unit": "%"}]}
{"compound": "Aflatoxin B1", "values": [{"measurement": "Pf_120h_%Growth_Rep1", "setting": "[1]", "value": 89.63, "unit": "%"}, {"measurement": "Pf_120h_%Growth_Rep2", "setting": "[1]", "value": 84.39, "unit": "%"}, {"measurement": "Pf_72h_%Growth_Rep1", "setting": "[2]", "value": 79.06, "unit": "%"}, {"measurement": "Pf_72h_%Growth_Rep2", "setting": "[2]", "value": 85.00, "unit": "%"}, {"measurement": "Tg_72h_%Growth_Rep1", "setting": "[3]", "value": 27.47, "unit": "%"}, {"measurement": "Tg_72h_%Growth_Rep2", "setting": "[3]", "value": 33.32, "unit": "%"}]}
{"compound": "CC(C)C[C@@H]1NC(=O)[C@@H]2CCCN2C1=O", "note": "[Cyclo(L-Leu-L-Pro)]", "values": [{"measurement": "Pf_120h_%Growth_Rep1", "setting": "[1]; [12]", "value": 82.10, "unit": "%"}, {"measurement": "Pf_120h_%Growth_Rep2", "setting": "[1]; [13]", "value": 83.93, "unit": "%"}, {"measurement": "Pf_72h_%Growth_Rep1", "setting": "[2]; [14]", "value": 83.89, "unit": "%"}, {"measurement": "Pf_72h_%Growth_Rep2", "setting": "[2]; [15]", "value": 81.36, "unit": "%"}, {"measurement": "Tg_72h_%Growth_Rep1", "setting": "[3]; [16]", "value": 124.64, "unit": "%"}, {"measurement": "Tg_72h_%Growth_Rep2", "setting": "[3]; [17]", "value": 91.02, "unit": "%"}]}
{"compound": "O=c1c(-c2ccc(O)cc2)coc2cc(O)ccc12", "note": "[Daidzein]", "values": [{"measurement": "activity at 2 µg/mL", "setting": "[1]; [18]", "value": 103, "unit": "%"}, {"measurement": "activity at 2 µg/mL", "setting": "[1]; [19]", "value": 95.5, "unit": "%"}, {"measurement": "activity at 2 µg/mL", "setting": "[2]; [20]", "value": 83.8, "unit": "%"}, {"measurement": "activity at 2 µg/mL", "setting": "[2]; [21]", "value": 88.8, "unit": "%"}, {"measurement": "percent parasite growth at 2 µg/mL", "setting": "[3]; [22]", "value": 125, "unit": "%"}, {"measurement": "percent parasite growth at 2 µg/mL", "setting": "[3]; [23]", "value": 97, "unit": "%"}]}
{"compound": "CC1CCCCCC(=O)c2c(O)cc(O)cc2CC(=O)O1", "note": "(stereo not drawn) [Curvularin]", "values": [{"measurement": "activity at 2 µg/mL", "setting": "[1]; [18]", "value": 93.3, "unit": "%"}, {"measurement": "activity at 2 µg/mL", "setting": "[1]; [19]", "value": 122, "unit": "%"}, {"measurement": "activity at 2 µg/mL", "setting": "[2]; [20]", "value": 94, "unit": "%"}, {"measurement": "activity at 2 µg/mL", "setting": "[2]; [21]", "value": 47.8, "unit": "%"}, {"measurement": "percent parasite growth at 2 µg/mL", "setting": "[3]; [22]", "value": 143, "unit": "%"}, {"measurement": "percent parasite growth at 2 µg/mL", "setting": "[3]; [23]", "value": 80.4, "unit": "%"}]}
{"compound": "CCCCC[C@@H](O)[C@H]1C(=O)O[C@H](C)[C@@H](O)/C=C/C=C/C=C/C=C/C=C(\\C)[C@@H](O)C[C@H](O)C[C@H](O)C[C@H](O)C[C@H](O)C[C@H](O)C[C@@H]1O", "note": "[Filipin III]", "values": [{"measurement": "activity at 2 µg/mL", "setting": "[1]; [4]", "value": 97.4, "unit": "%"}, {"measurement": "activity at 2 µg/mL", "setting": "[1]; [5]", "value": 99.7, "unit": "%"}, {"measurement": "activity at 2 µg/mL", "setting": "[2]; [6]", "value": 83.6, "unit": "%"}, {"measurement": "activity at 2 µg/mL", "setting": "[2]; [7]", "value": 89.2, "unit": "%"}, {"measurement": "percent parasite growth at 2 µg/mL", "setting": "[3]; [8]", "value": 120, "unit": "%"}, {"measurement": "percent parasite growth at 2 µg/mL", "setting": "[3]; [9]", "value": 104, "unit": "%"}]}
{"compound": "NC(=O)C#CC(N)=O", "note": "[Cellocidin]", "values": [{"measurement": "Pf_120h_%Growth_Rep1", "setting": "[1]; [12]", "value": 151.65, "unit": "%"}, {"measurement": "Pf_120h_%Growth_Rep2", "setting": "[1]; [13]", "value": 95.14, "unit": "%"}, {"measurement": "Pf_72h_%Growth_Rep1", "setting": "[2]; [14]", "value": 102.17, "unit": "%"}, {"measurement": "Pf_72h_%Growth_Rep2", "setting": "[2]; [15]", "value": 89.58, "unit": "%"}, {"measurement": "Tg_72h_%Growth_Rep1", "setting": "[3]; [16]", "value": 79.59, "unit": "%"}, {"measurement": "Tg_72h_%Growth_Rep2", "setting": "[3]; [17]", "value": 92.91, "unit": "%"}]}
{"compound": "C[C@H]1CCC[C@H](O)CCCCCc2cc(O)cc(O)c2C(=O)O1", "note": "[Zearalanol, alpha-]", "values": [{"measurement": "Pf_120h_%Growth_Rep1", "setting": "[1]; [12]", "value": 88.76, "unit": "%"}, {"measurement": "Pf_120h_%Growth_Rep2", "setting": "[1]; [13]", "value": 84.84, "unit": "%"}, {"measurement": "Pf_72h_%Growth_Rep1", "setting": "[2]; [14]", "value": 80.84, "unit": "%"}, {"measurement": "Pf_72h_%Growth_Rep2", "setting": "[2]; [15]", "value": 78.13, "unit": "%"}, {"measurement": "Tg_72h_%Growth_Rep1", "setting": "[3]; [16]", "value": 162.37, "unit": "%"}, {"measurement": "Tg_72h_%Growth_Rep2", "setting": "[3]; [17]", "value": 92.02, "unit": "%"}]}
{"compound": "CN[C@@H]1C[C@H]2O[C@@](C)([C@@H]1OC)n1c3ccccc3c3c4c(c5c6ccccc6n2c5c31)C(=O)N[C@H]4O", "note": "[UCN-02]", "values": [{"measurement": "Pf_120h_%Growth_Rep1", "setting": "[1]; [12]", "value": 30.31, "unit": "%"}, {"measurement": "Pf_120h_%Growth_Rep2", "setting": "[1]; [13]", "value": 6.39, "unit": "%"}, {"measurement": "Pf_72h_%Growth_Rep1", "setting": "[2]; [14]", "value": 0.18, "unit": "%"}, {"measurement": "Pf_72h_%Growth_Rep2", "setting": "[2]; [15]", "value": -6.73, "unit": "%"}, {"measurement": "Tg_72h_%Growth_Rep1", "setting": "[3]; [16]", "value": 2.39, "unit": "%"}, {"measurement": "Tg_72h_%Growth_Rep2", "setting": "[3]; [17]", "value": 1.72, "unit": "%"}]}
